# Reference: EP0189679A1, “Novel crystalline form of 1-benzhydryl-4-allylpiperazine dihydrochloride and method for the production thereof” (SO "PHARMACHIM", priority 1984, dated 1986)
# Key:
# [1] = Hygroscopicity study of ground samples in a humidity chamber; assay type: physicochemical; conditions: 90% humidity, 25°C, period of 30 days
# Description: Hygroscopicity studies have been carried out by placing samples of the three crystalline forms with the same particle size resulting from grinding of samples of the three crystalline forms in a vibratory mill. The studies take place in a chamber with 90% humidity and at a temperature of 25°C. At intervals, samples are taken in order to determine their water content and their crystalline structure by means of the methods described hereinabove. […] They are not hygroscopic and are physically stable under the test conditions..
# [2] = Stability in aqueous solution (injectible compositions) of different crystalline forms; assay type: physicochemical; conditions: dihydrochloride; for Content of active substance in the solution in %, In storing 1 year: stored 1 year; for Content of active substance in the solution in %, In storing 3 years: stored 3 years
# From the text: Table 3 indicates comparative data concerning the stability of injectible forms of pharmaceutical compositions containing either crystalline form "A" according to the present invention and form "B" (aligerone prepared according to the method described in the aforementioned references to Zikolova and Ninov).
# [3] = Solubility profile / rate of dissolution of pulverous specimens in water; assay type: physicochemical; conditions: 25°C
# Description: The respective solubilities of the three crystalline modifications have also been studied. The rate of dissolution of pulverous specimens in water was determined in the following manner: a finely ground powder formed from the crystalline form under study in a quantity twice as great as necessary to produce a saturated solution in water is placed in a receptacle containing 100 ml of distilled water. The suspension is stirred using a magnetic agitator (600 r.p.m.) at a temperature of 25°C. At predetermined time intervals, samples are taken and, after filtering through a Milipor filter ([…]) they are diluted to the necessary volume for performing a quantitative determination. For this purpose, an absorption maximum at 250 nm is used.
# [4] = Stability study of the solid forms under ambient storage conditions in light-permeable glass jars; assay type: physicochemical; conditions: ambient storage in glass jars permitting passage of light; over one year and after three years
# From the text: More exhaustive stability studies have been performed under ambient storage conditions in glass jars which permit the passage of light therethrough. […] The three crystalline forms are chemically and physically stable under normal storage conditions.
# [5] = test system: blood vessels of the brain; conditions: from Zikolova and Ninov and Drugs of the Future 1980, 5(1); cited from earlier work
# [6] = Initial rate of dissolution of pressed discs in 0.1 N hydrochloric acid; assay type: physicochemical; conditions: pressed disc 200 mg substance + 100 mg polyvinylchloride, 100 ml 0.1 N hydrochloric acid, 25°C, linear part between first and fifth minutes
# Description: In Table 4 which follows, there are compared the rates of dissolution of the. three crystalline forms. Investigations were carried out with pressed discs made up of 200 mg of the test substance and 100 mg of polyvinylchloride pressed at a pressure of 10 tonnes for 5 minutes in a plane around the disc using a pill making matrix with a diameter of 13 mm. The discs thus obtained are immersed by means of a special holding device in 100 ml of 0.1 N hydrochloric acid solution. Stirring was carried out by means of an electromagnetic agitator. The testing temperature employed was 25°C. The initial rates of dissolution are determined from the dissolution curves for the pressed discs, using the linear part between the first and fifth minutes. Comparison of data for the initial rate of dissolution of the three crystalline forms indicate that crystal form "A" has an initial rate of dissolution which is 3 to 4 times greater than that of the other forms.
# [7] = powder in 100 ml distilled water, 600 r.p.m.
smiles,measurement,setting,value
"C=CCN1CCN(C(c2ccccc2)c2ccccc2)CC1.Cl.Cl [Form ""A"", 1-benzhydryl-4-allyl-piperazine dihydrochloride]",hygroscopicity (water absorption),[1],non-hygroscopic
same,"Content of active substance in the solution in %, Initial concentration",[2]; listed as A,1.251%
same,"Content of active substance in the solution in %, In storing 1 year",[2]; listed as A,1.250%
same,"Content of active substance in the solution in %, In storing 3 years",[2]; listed as A,1.198%
same,time to attain maximum solubility,[3]; [7],≤ 2 min
same,time until solubility reaches a constant value,"[3]; powder in 100 ml distilled water, 600 r.p.m., listed as form ""A"", dihydrochloride",10 min
same,solubility in comparison with the other crystalline forms,"[3]; water, compared with anhydrous form ""B"" and the crystalline hydrate",higher equilibrium solubility
same,chemical and physical stability on storage,[4],stable on storage under normal conditions
"C=CCN1CCN(C(c2ccccc2)c2ccccc2)CC1.Cl.Cl [aligerone, 1-benzhydryl-4-allyl-piperazine dihydrochloride]",effect on blood circulation and oxygen concentration of the brain compared with cinnarizine,[5],stronger than that of cinnarizine
"C=CCN1CCN(C(c2ccccc2)c2ccccc2)CC1.Cl.Cl [Form ""B"", 1-benzhydryl-4-allylpiperazine dihydrochloride]",Initial rate of dissolving,"[6]; listed as B, dihydrochloride",0.467 mg/mL/min
same,"Content of active substance in the solution in %, Initial concentration",[2]; listed as B,1.255%
same,"Content of active substance in the solution in %, In storing 1 year",[2]; listed as B,1.105%
same,"Content of active substance in the solution in %, In storing 3 years",[2]; listed as B,0.925%
same,time until solubility reaches a constant value,"[3]; powder in 100 ml distilled water, 600 r.p.m., listed as form ""B"", dihydrochloride",60 min
"C=CCN1CCN(C(c2ccccc2)c2ccccc2)CC1.Cl.Cl.O.O [Crystalline hydrate, 1-benzhydryl-4-allylpiperazine dihydrochloride dihydrate, reference compound]",Initial rate of dissolving,[6],0.333 mg/mL/min
same,time until solubility reaches a constant value,[3]; [7],60 min
